Source: US20060074255A1, “3-Methyl-20-epi-vitamin D derivatives” (priority 2000, published 2006)

target: T1, bovine thymus vitamin D receptor (Bos taurus, UniProt Q28037); assay: Assay for Binding to Bovine Thymus Vitamin D Receptor (VDR); settings: relative value with 1α,25-dihydroxyvitamin D3 taken as 100; X=(y/x)×100 from concentrations inhibiting 50% of [3H]-1α,25-dihydroxyvitamin D3 binding to VDR
T1 construct: Bovine thymus 1α,25-dihydroxyvitamin D3 receptor was purchased from Yamasa Biochemcal; purchased Yamasa Biochemcal (Choshi, Chiba, Japan) lot; 112631; host or cells: bovine thymus (tissue preparation)
T1 sequence (Q28037 1-426): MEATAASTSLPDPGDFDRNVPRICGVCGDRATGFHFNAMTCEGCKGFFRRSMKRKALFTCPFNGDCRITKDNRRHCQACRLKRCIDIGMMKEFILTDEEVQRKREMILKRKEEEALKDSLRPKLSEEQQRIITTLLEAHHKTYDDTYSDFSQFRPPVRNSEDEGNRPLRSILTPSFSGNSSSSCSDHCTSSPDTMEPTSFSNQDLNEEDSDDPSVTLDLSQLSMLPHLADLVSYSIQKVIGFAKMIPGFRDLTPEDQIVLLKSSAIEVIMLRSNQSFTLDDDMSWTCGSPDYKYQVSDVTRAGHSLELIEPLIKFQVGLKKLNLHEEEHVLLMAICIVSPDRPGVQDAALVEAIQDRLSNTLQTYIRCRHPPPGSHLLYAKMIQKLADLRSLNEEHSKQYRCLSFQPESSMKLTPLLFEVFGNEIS
Description: Assay for Binding to Bovine Thymus Vitamin D Receptor (VDR)
Compounds 14, 16, 19 and 21 synthesized in the above Examples 1 to 4 were tested for their binding properties to bovine thymus vitamin D receptor.
Ethanol solutions of 1α,25-dihydroxyvitamin D3 (the standard substance) and Compounds 14, 16, 19 and 21 were prepared at various concentrations. Bovine thymus 1α,25-dihydroxyvitamin D3 receptor was purchased from Yamasa Biochemcal (Choshi, Chiba, Japan) (lot. 112631) and, just before use, one ampule (approximately 25 mg) of the receptor was dissolved in 55 mL of 0.05 M phosphate buffer (pH 7.4) containing 0.3M KCl and 5 mM dithiothreitol.
Each of the ethanol solutions (50 μl) of the test compounds and 1α,25-dihydroxyvitamin D3 was put into a respective tube with 500 μl (0.23 mg protein) of the receptor solution, pre-incubated at 25° C. for 1 hour, and [^3H]-1α,25-dihydroxyvitamin D3 was added at the final concentration of 0.1 nM, followed by incubation overnight at 4° C. Each of the reaction mixtures was mixed with DCC (dextran coated charcoal), left for 30 minutes at 4° C. and centrifuged at 3000 rpm for ten minutes to separate the bound and free forms of [^3H]-1α,25-dihydroxyvitamin D3. Each of the resultant supernatants (500 μl) was mixed with ACS-II (9.5 ml) (AMERSHAM, England) for radioactivity measurement.
The binding properties of the test compounds expressed in relative value with that of 1α,25-dihydroxyvitamin D3 taken as 100 were shown in Table below. The values were calculated according to the following equation. X=(y/x)×100 • X: relative VDR binding property of a test compound • y: concentration of 1α,25-dihydroxyvitamin D3 that inhibits 50% of the binding of [^3H]-1α,25-dihydroxyvitamin D3 and VDR
x: concentration of the test compound that inhibits 50% of the binding of [^3H]-1α,25-dihydroxyvitamin D3 and VDR

With C=C1/C(=C\C=C2/CCC[C@@]3(C)C2CCC3[C@@H](C)CCCC(C)(C)O)C[C@@](C)(O)C[C@H]1O (stereo partly drawn) [Compound 14, (5Z,7E)-(1R,3R,20S)-3-methyl-9,10-seco-5,7,10(19)-cholestatriene-1,3,25-triol] as the compound, how does the VDR binding properties read?
Its VDR binding properties is 0.035.

For C=C1/C(=C\C=C2/CCC[C@@]3(C)C2CCC3[C@@H](C)CCCC(C)(C)O)C[C@](C)(O)C[C@@H]1O (stereo partly drawn) [Compound 19, (5Z,7E)-(lS,3S,20S)-3-methyl-9,10-seco-5,7,10(19)-cholestatriene-1,3,25-triol], which VDR binding properties is on record?
The VDR binding properties was 0.24.

With C=C1/C(=C\C=C2/CCC[C@@]3(C)C2CCC3[C@@H](C)CCCC(C)(C)O)C[C@@](C)(O)C[C@@H]1O (stereo partly drawn) [Compound 16, (5Z,7E)-(1S,3R,20S)-3-methyl-9,10-seco-5,7,10(19)-cholestatriene-1,3,25-triol] as the compound, how does the VDR binding properties read?
The VDR binding properties was 70.

How did the VDR binding properties turn out when C=C1/C(=C\C=C2/CCC[C@@]3(C)C2CCC3[C@@H](C)CCCC(C)(C)O)C[C@](C)(O)C[C@H]1O (stereo partly drawn) [Compound 21, (5Z,7E)-(1R,3S,20S)-3-Methyl-9,10-seco-5,7,10(19)-cholestatriene-1,3,25-triol] was run?
The VDR binding properties was less than 0.01.
